Results: patent CN111517978A, “环己烯基-dl-天门冬氨酸衍生物及其制备方法、组合物与用途” (Zhongshan Wanhan Pharmaceutical Co ltd, priority 2020, dated 2020)

Key:
Format in all cases: cell-based
Details in all cases: component A (XP or YS) alone
[1] = system: Clostridium perfringens ATCC13124 (产气荚膜梭状芽孢杆菌ATCC13124)
[2] = system: Escherichia coli ATCC25922 (大肠杆菌ATCC25922); experiment: Antibacterial action (MIC, FICI) against Escherichia coli ATCC25922 (Table 7)
[3] = system: Propionibacterium acnes ATCC11828 (痤疮丙酸杆菌ATCC11828); experiment: Antibacterial action (MIC, FICI) against Propionibacterium acnes ATCC11828 (Table 21)
[4] = system: Shigella flexneri 2aEW-10 (福氏志贺氏菌2aEW-10); experiment: Antibacterial action (MIC, FICI) against Shigella flexneri 2aEW-10 (Table 15)
[5] = system: Stenotrophomonas maltophilia NCTC 13637 (嗜麦芽窄食单胞菌NCTC 13637); experiment: Antibacterial action (MIC, FICI) against Stenotrophomonas maltophilia NCTC 13637 (Table 18)
[6] = system: Micrococcus lysodeikticus 2665 (溶壁微球菌2665); experiment: Antibacterial action (MIC, FICI) against Micrococcus lysodeikticus 2665 (Table 4)
[7] = system: Providencia stuartii 57 (斯氏普罗威登斯菌57); experiment: Antibacterial action (MIC, FICI) against Providencia stuartii 57 (Table 12)
[8] = system: Streptococcus intermedius ATCC27335 (中间链球菌ATCC27335); experiment: Antibacterial action (MIC, FICI) against Streptococcus intermedius ATCC27335 (Table 20)
[9] = system: Bacteroides fragilis ATCC25285 (脆弱拟杆菌ATCC25285); experiment: Antibacterial action (MIC, FICI) against Bacteroides fragilis ATCC25285 (Table 26)
[10] = system: Serratia marcescens IFO 3736 (黏质沙雷氏菌IFO 3736); experiment: Antibacterial action (MIC, FICI) against Serratia marcescens IFO 3736 (Table 10)
[11] = system: Klebsiella pneumoniae NCTC 9632 (肺炎克雷伯菌NCTC 9632); experiment: Antibacterial action (MIC, FICI) against Klebsiella pneumoniae NCTC 9632 (Table 9)

| Structure (SMILES) | MIC_A [1] | MIC_A [3] | MIC_A [5] | MIC_A [7] | MIC_A [10] | further results |
| --- | --- | --- | --- | --- | --- | --- |
| CCOC(=O)C1=C[C@H](OC(CC)CC)[C@@H](N)[C@H](NC(CC(=O)O)C(=O)O)C1 (mixture of isomers) [化合物17P, ((1R,5S,6S)-6-氨基-3-(乙氧基羰基)-5-(戊-3-基氧基)环己-3-烯-1-基)-DL-天门冬氨酸] | 21 ng/mL | 27 ng/mL | 16 ng/mL | – | – | MIC_A [2]: 22 ng/mL; MIC_A [4]: 30 ng/mL |
| CCOC(=O)C1=C[C@@H](OC(C)C)[C@H](NC(C)=O)[C@@H](NC(CC(=O)O)C(=O)O)C1 (mixture of isomers) [化合物20P, ((1S,5R,6R)-6-乙酰氨基-3-(乙氧基羰基)-5-异丙氧基环己-3-烯-1-基)-DL-天门冬氨酸] | – | 18 ng/mL | 36 ng/mL | – | – | MIC_A [2]: 19 ng/mL |
| CCOC(=O)C1=C[C@@H](OC(CC)CC)[C@H](NC(C)=O)[C@@H](N)C1 [化合物1S, 乙基(3R,4R,5S)-4-乙酰氨基-5-氨基-3-(戊-3-基氧基)环己-1-烯-1-羧酸酯] | 504 ng/mL | 633 ng/mL | – | 1178 ng/mL | – | MIC_A [6]: 300 ng/mL |
| CCOC(=O)C1=C[C@H](OC(CC)CC)[C@H](N)[C@@H](NC(C)=O)C1 [化合物18S, 乙基(3S,4R,5S)-5-乙酰氨基-4-氨基-3-(戊-3-基氧基)环己-1-烯-1-羧酸酯] | – | – | – | 959 ng/mL | 992 ng/mL | MIC_A [8]: 1137 ng/mL; MIC_A [6]: 418 ng/mL; MIC_A [9]: 305 ng/mL |
| CCOC(=O)C1=C[C@H](OC(CC)CC)[C@H](NC(C)=O)[C@@H](NC(CC(=O)O)C(=O)O)C1 (mixture of isomers) [化合物6P, ((1S,5S,6R)-6-乙酰氨基-3-(乙氧基羰基)-5-(戊-3-基氧基)环己-3-烯-1-基)-DL-天门冬氨酸] | – | – | 17 ng/mL | – | 7 ng/mL | MIC_A [8]: 28 ng/mL; MIC_A [6]: 26 ng/mL |
| CCOC(=O)C1=C[C@H](OC(CC)CC)[C@@H](NC(C)=O)[C@H](N)C1 [化合物7S, 乙基(3S,4S,5R)-4-乙酰氨基-5-氨基-3-(戊-3-基氧基)环己-1-烯-1-羧酸酯] | – | 461 ng/mL | – | – | – | MIC_A [11]: 376 ng/mL; MIC_A [2]: 484 ng/mL; MIC_A [4]: 1145 ng/mL |
| CCC(CC)O[C@H]1C=C(C(=O)O)C[C@@H](NC(CC(=O)O)C(=O)O)[C@@H]1N (mixture of isomers) [化合物16P, ((1R,5S,6S)-6-氨基-3-羧基-5-(戊-3-基氧基)环己-3-烯-1-基)-DL-天门冬氨酸] | – | – | – | – | – | MIC_A [11]: 15 ng/mL |
| CCOC(=O)C1=C[C@@H](OC(C)CC)[C@H](NC(C)=O)[C@@H](N)C1 (stereo partly drawn) [化合物19S, 乙基(3R,4R,5S)-4-乙酰氨基-5-氨基-3-(sec-丁氧基)环己-1-烯-1-羧酸酯] | – | – | – | 823 ng/mL | 1016 ng/mL | MIC_A [8]: 310 ng/mL |
| CCOC(=O)C1=C[C@@H](OC(CC)CC)[C@H](NC(C)=O)[C@@H](NC(CC(=O)O)C(=O)O)C1 (mixture of isomers) [化合物1P, ((1S,5R,6R)-6-乙酰氨基-3-(乙氧基羰基)-5-(戊-3-基氧基)环己-3-烯-1-基)-DL-天门冬氨酸] | 12 ng/mL | 18 ng/mL | – | 13 ng/mL | – | MIC_A [6]: 4 ng/mL |
| CCOC(=O)C1=C[C@@H](OC(CC)CC)[C@@H](NC(C)=O)[C@@H](NC(CC(=O)O)C(=O)O)C1 (mixture of isomers) [化合物8P, ((1S,5R,6S)-6-乙酰氨基-3-(乙氧基羰基)-5-(戊-3-基氧基)环己-3-烯-1-基)-DL-天门冬氨酸] | 28 ng/mL | – | 41 ng/mL | – | – | – |
| CCC(CC)O[C@@H]1C=C(C(=O)OC)C[C@H](NC(CC(=O)O)C(=O)O)[C@H]1NC(C)=O (mixture of isomers) [化合物3P, ((1S,5R,6R)-6-乙酰氨基-3-(甲氧基羰基)-5-(戊-3-基氧基)环己-3-烯-1-基)-DL-天门冬氨酸] | – | – | – | – | 11 ng/mL | MIC_A [9]: 11 ng/mL; MIC_A [11]: 22 ng/mL |
| CCC(CC)O[C@@H]1C=C(C(=O)OC)C[C@H](N)[C@H]1NC(C)=O [化合物3S, 甲基(3R,4R,5S)-4-乙酰氨基-5-氨基-3-(戊-3-基氧基)环己-1-烯-1-羧酸酯] | – | – | – | – | 456 ng/mL | MIC_A [9]: 362 ng/mL; MIC_A [11]: 424 ng/mL |
| CCOC(=O)C1=C[C@@H](OC(CC)CC)[C@@H](NC(C)=O)[C@@H](N)C1 [化合物8S, 乙基(3R,4S,5S)-4-乙酰氨基-5-氨基-3-(戊-3-基氧基)环己-1-烯-1-羧酸酯] | 483 ng/mL | – | 800 ng/mL | – | – | – |
| CCOC(=O)C1=C[C@@H](OC(CC)CC)[C@H](NC(C)=O)[C@@H](NC(CC(=O)O)C(=O)O)C1 (mixture of isomers) [化合物4P, ((1S,5R,6R)-6-乙酰氨基-3-(乙氧基羰基)-5-(戊-3-基氧基)环己-3-烯-1-基)-DL-天门冬氨酸] | 36 ng/mL | – | – | 34 ng/mL | – | MIC_A [2]: 17 ng/mL |
| CCOC(=O)C1=C[C@@H](OC(C)CC)[C@H](NC(C)=O)[C@@H](NC(CC(=O)O)C(=O)O)C1 (mixture of isomers) [化合物19P, ((1S,5R,6R)-6-乙酰氨基-5-(sec-丁氧基)-3-(乙氧基羰基)环己-3-烯-1-基)-DL-天门冬氨酸] | – | – | – | 17 ng/mL | 13 ng/mL | MIC_A [8]: 11 ng/mL |
